# Reference: ChEMBL document CHEMBL3301361, “Experimental in vitro DMPK and physicochemical data on a set of publicly disclosed compounds”
# Tests used:
# physchem [1] = conditions: octan-1-ol/water
# in vitro [2] = conditions: Beagle, dog, plasma
# in vitro [3] = conditions: human
# physchem [4] = assay: physchem
# physchem [5] = conditions: pH 7.4 buffer
# in vitro [6] = conditions: human, hepatocytes
# in vitro [7] = conditions: human, plasma
# in vitro [8] = conditions: hepatocytes
# physchem [9] = assay: physchem; remark: listed apart in the source
# in vitro [10] = conditions: SD, HW or BN, rat, plasma
smiles,measurement,setting,value
O=C(NCC12CC3CC(CC(C3)C1)C2)c1cc(OC2CCNCC2)ccc1Cl,logD,"physchem [1]; pH 7.4, LogD7.4",1.83
same,fraction unbound at 5 h,in vitro [2],0.0768
same,microsomal CLint,in vitro [3]; microsomes,28 µL/min/mg
same,pKa,physchem [4],9
C[C@H](CO)Nc1nc(SCc2ccccc2)nc2[nH]c(=O)sc12,solubility thermodynamic,physchem [5],53.7 µM
same,hepatocyte CLint,in vitro [6],19.4 µL/min/1e6 cells
same,logD,"physchem [1]; pH 7.4, LogD7.4",2.86
same,fraction unbound at 5 h,in vitro [7]; PPB,0.0029
same,fraction unbound at 5 h,in vitro [2],0.0219
same,hepatocyte CLint,in vitro [8],< 3 µL/min/1e6 cells
same,microsomal CLint,in vitro [3]; liver microsomes,4 µL/min/mg
C(=C\c1nn[nH]n1)/c1ccccc1,logD,"physchem [1]; pH 7.4, LogD7.4",-0.4
same,pKa,physchem [9],4.5
O=C(NCC12CC3CC(CC(C3)C1)C2)c1cc(N2CCNCC2)ncc1Cl,fraction unbound at 5 h,in vitro [2],0.0736
same,microsomal CLint,in vitro [3]; liver microsomes,10 µL/min/mg
same,pKa,physchem [4],8.5
N#Cc1sccc1NS(=O)(=O)c1ccc(Cl)cc1,pKa,physchem [9],5.1
CCCC(=O)Nc1ccc(OCC(O)CNC(C)C)c(C(C)=O)c1 (stereo not given) [ACEBUTOLOL],fraction unbound at 5 h,in vitro [2],0.788
same,fraction unbound at 5 h,in vitro [10],0.711
same,pKa,physchem [4],9.45
CC(=O)Nc1ccc(O)cc1 [ACETAMINOPHEN],logD,"physchem [1]; pH 7.4, LogD7.4",0.25
same,fraction unbound at 5 h,in vitro [7],0.734
same,pKa,physchem [9],9.48
CC1(C)S[C@@H]2[C@H](NC(=O)[C@H](NC(=O)N3CCNC3=O)c3ccccc3)C(=O)N2[C@H]1C(=O)O [AZLOCILLIN],pKa,physchem [9],2.41
CC(C)NCC(O)COc1ccc(COCCOC(C)C)cc1 (stereo not given) [BISOPROLOL],logD,"physchem [1]; pH 7.4, LogD7.4",0.1
same,fraction unbound at 5 h,in vitro [2],0.743
same,hepatocyte CLint,in vitro [8],25.1 µL/min/1e6 cells
same,fraction unbound at 5 h,in vitro [10],0.768
same,pKa,physchem [4],9.87
Cn1nnnc1SCC1=C(C(=O)O)N2C(=O)[C@@H](NC(=O)[C@H](O)c3ccccc3)[C@H]2SC1 [CEFAMANDOLE],pKa,physchem [9],3.29
NS(=O)(=O)c1cc(C2(O)NC(=O)c3ccccc32)ccc1Cl (stereo not given) [CHLORTHALIDONE],solubility thermodynamic,physchem [5],501 µM
same,logD,physchem [1]; pH 7.4,0.97
same,pKa,physchem [9],9.11
O=C(O)c1cc(=O)c2ccccc2o1 [CHROMOCARB],pKa,physchem [9],< 2
CCn1nc(C(=O)O)c(=O)c2cc3c(cc21)OCO3 [CINOXACIN],pKa,physchem [9],4.36
CC1=NS(=O)(=O)c2cc(Cl)ccc2N1 [DIAZOXIDE],logD,"physchem [1]; pH 7.4, LogD7.4",1.05
same,pKa,physchem [9],8.42
CCCCc1oc2ccc(NS(C)(=O)=O)cc2c1C(=O)c1ccc(OCCCN(CCCC)CCCC)cc1 [DRONEDARONE],fraction unbound at 5 h,in vitro [7]; PPB,0.0009
same,pKa,physchem [9],7.69
Cc1onc(-c2c(F)cccc2Cl)c1C(=O)N[C@@H]1C(=O)N2[C@@H]1SC(C)(C)[C@@H]2C(=O)O [FLOXACILLIN],pKa,physchem [9],2.46
O=C(O)c1ccccc1Nc1cccc(C(F)(F)F)c1 [FLUFENAMIC ACID],logD,physchem [1]; pH 7.4,2.01
same,pKa,physchem [9],3.56
CCC(=O)O[C@]1(C(=O)SCF)[C@H](C)C[C@H]2[C@@H]3C[C@H](F)C4=CC(=O)C=C[C@]4(C)[C@@]3(F)[C@@H](O)C[C@@]21C [FLUTICASONE PROPIONATE],hepatocyte CLint,in vitro [6],> 150 µL/min/1e6 cells
same,fraction unbound at 5 h,in vitro [7]; PPB,0.0191
same,fraction unbound at 5 h,in vitro [2],0.0116
same,hepatocyte CLint,in vitro [8],107 µL/min/1e6 cells
same,fraction unbound at 5 h,in vitro [10],0.0153
Cc1ncc2n1-c1ccc(Cl)cc1C(c1ccccc1F)=NC2 [MIDAZOLAM],solubility thermodynamic,physchem [5],72.4 µM
same,hepatocyte CLint,in vitro [6],32.4 µL/min/1e6 cells
same,fraction unbound at 5 h,in vitro [7],0.0175
same,fraction unbound at 5 h,in vitro [2],0.02
same,hepatocyte CLint,in vitro [8],121 µL/min/1e6 cells
same,fraction unbound at 5 h,in vitro [10],0.0457
same,pKa,physchem [4],6.11
CCNC(=O)C[C@@H]1N=C(c2ccc(Cl)cc2)c2cc(OC)ccc2-n2c(C)nnc21 [MOLIBRESIB],fraction unbound at 5 h,in vitro [7],0.24
same,fraction unbound at 5 h,in vitro [2],0.324
same,hepatocyte CLint,in vitro [8],10.2 µL/min/1e6 cells
same,fraction unbound at 5 h,in vitro [10],0.314
same,microsomal CLint,in vitro [3]; microsomes,14.1 µL/min/mg
same,pKa,physchem [4],2.1
COC(=O)C1=C(C)NC(C)=C(C(=O)OCCN(C)Cc2ccccc2)C1c1cccc([N+](=O)[O-])c1 (stereo not given) [NICARDIPINE],solubility thermodynamic,physchem [5],7.4 µM
same,fraction unbound at 5 h,in vitro [2],0.004
same,fraction unbound at 5 h,in vitro [10],0.0039
same,pKa,physchem [4],7.26
CC1(C)S[C@@H]2[C@H](NC(=O)Cc3ccccc3)C(=O)N2[C@H]1C(=O)O [PENICILLIN G],pKa,physchem [9],3.32
CC[C@H](C)C(=O)O[C@H]1C[C@H](O)C=C2C=C[C@H](C)[C@H](CC[C@@H](O)C[C@@H](O)CC(=O)O)[C@H]21 [PRAVASTATIN],hepatocyte CLint,in vitro [6],< 3 µL/min/1e6 cells
same,logD,"physchem [1]; pH 7.4, LogD7.4",-0.76
same,fraction unbound at 5 h,in vitro [2],0.608
same,hepatocyte CLint,in vitro [8],27 µL/min/1e6 cells
same,fraction unbound at 5 h,in vitro [10],0.349
same,microsomal CLint,in vitro [3]; microsomes,< 3 µL/min/mg
CCCc1c2c(cc3c(=O)cc(C(=O)O)oc13)CCCC2 [PROCROMIL],pKa,physchem [9],< 2
CN(C(=O)c1c(O)c2ccccc2n(C)c1=O)c1ccccc1 [ROQUINIMEX],pKa,physchem [9],4.2
Nc1ccc(S(=O)(=O)Nc2ncccn2)cc1 [SULFADIAZINE],pKa,physchem [9],6.29
Nc1ccc(S(=O)(=O)Nc2nccs2)cc1 [SULFATHIAZOLE],logD,"physchem [1]; pH 7.4, LogD7.4",-0.37
same,pKa,physchem [9],7.01
Cc1ccc(S(=O)(=O)NC(=O)NN2CCCCCC2)cc1 [TOLAZAMIDE],logD,"physchem [1]; pH 7.4, LogD7.4",0.01
same,pKa,physchem [9],5.8
O=C(O)c1cc(=O)c2ccccc2[nH]1 [TRANSTORINE],pKa,physchem [9],2.5
CC(C)(C)NC(=O)c1ccc(Oc2cc(F)c(CC(=O)O)cc2Cl)c(NS(=O)(=O)c2ccc(C3CC3)cc2Cl)c1 [VIDUPIPRANT],solubility thermodynamic,physchem [5],851 µM
same,hepatocyte CLint,in vitro [6],6 µL/min/1e6 cells
same,fraction unbound at 5 h,in vitro [7]; PPB,0.0015
same,fraction unbound at 5 h,in vitro [2],0.0039
same,hepatocyte CLint,in vitro [8],6 µL/min/1e6 cells
same,microsomal CLint,in vitro [3]; liver microsomes,< 3 µL/min/mg
